Literature values, collected in US20050239189A1, “Oxidant-scavenging compound for anaerobic treatment” (priority 2004, published 2005).

System: CVOC dehalogenation
Details: eight case studies reported by Regenesis, Inc. (2000)

CC(O)C(=O)O (stereo not shown) [Lactic Acid]
stimulation of CVOC dehalogenation: stimulated CVOC dehalogenation
